The source of these data is article PMC8868346, “Novel Series of Dual NRF2 Inducers and Selective MAO-B Inhibitors for the Treatment of Parkinson’s Disease” (Antioxidants, 2022).

The target of series [1] is T1, hrMAO-B (Homo sapiens, UniProt P27338).
T1 construct: purchased Sigma–Aldrich
T1 sequence (P27338 1-520): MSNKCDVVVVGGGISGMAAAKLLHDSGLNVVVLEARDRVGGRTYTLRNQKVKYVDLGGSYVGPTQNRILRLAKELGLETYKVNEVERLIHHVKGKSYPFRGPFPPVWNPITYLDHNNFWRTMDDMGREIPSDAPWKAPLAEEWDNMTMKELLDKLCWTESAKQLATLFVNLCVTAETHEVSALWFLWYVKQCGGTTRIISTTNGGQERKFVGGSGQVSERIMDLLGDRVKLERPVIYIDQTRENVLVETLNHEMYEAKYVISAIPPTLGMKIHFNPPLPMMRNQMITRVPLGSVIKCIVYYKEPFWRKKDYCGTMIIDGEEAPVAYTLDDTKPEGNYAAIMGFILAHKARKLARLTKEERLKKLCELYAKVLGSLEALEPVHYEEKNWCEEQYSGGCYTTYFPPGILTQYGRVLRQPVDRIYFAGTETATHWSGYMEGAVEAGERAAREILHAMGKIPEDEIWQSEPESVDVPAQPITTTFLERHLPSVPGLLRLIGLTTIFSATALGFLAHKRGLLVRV
The experiment in a line: Inhibition of monoamine oxidase B (Amplex UltraRed, tyramine). It counts as biochemical. The conditions noted are these: for Selectivity Index (MAO-A/MAO-B): ratio IC50 MAO-A/IC50 MAO-B.

Series [2] has as its system blood-brain barrier (passive diffusion). The experiment in a line: in vitro. The following applies: PAMPA, pH 7.4. On the technique in general: In PAMPA a lipid-coated filter parts donor from acceptor wells.
Method: (§1) Briefly, permeability of the compounds was measured at an initial concentration of 100 µM, including positive and negative controls (Supplementary Data; Table S3). […] After 5 min, 180 µL of each compound solution in PBS (10 mM, pH 7.4) was added to determine their ability to pass the membrane (VD). The 96-well acceptor plate (Multiscreen, Millipore Corp., Madrid Spain) was loaded with 180 µL of PBS (VA). Then, the donor filter plate was carefully placed on the acceptor plate to form a sandwich-like system, which was left undisturbed for 4 h at room temperature. After incubation, the donor plate was removed and the absorbance at the maximum absorption wavelength for each compound was recorded in both the acceptor and donor wells (150 µL/well) using a UV plate reader SPECTROstar Nano (BMG Labtech, Ortenberg, Germany). Concentration of the compounds in the donor and acceptor plates and equilibrium concentration were calculated and expressed as permeability (Pe) according the Equation (1). Results are expressed as mean ± standard error of the mean (SEM) of at least three different experiments in duplicate:(1) logPe =log{C×−ln(1−[drug]acceptor/[drug]equilibrium)} where C=(VD×VA/(VD +VA)×Area×Time) .
For series [3], the system named is NRF2. Briefly: NRF2 induction, luciferase activity in AREc32 reporter cells. It counts as cell-based, human. The conditions noted are these: for EC50: Homo sapiens, 24 h, concentration required to double luciferase activity compared to basal, read-out: CD (µM) NRF2 Induction; for fold potentiation of NRF2 induction compared to the corresponding -OMe derivative: 11, 12 vs 10, 14, 15 vs 13. Here is the method: Cells were used from the third to twelfth passage.
AREc32 cells were stably transfected with the plasmid pGL-8xARE that implements 8 copies of the antioxidant response element (ARE) sequences followed by luciferase reporter gen. Therefore, NRF2 induction can be related to the activation of ARE sequences by measuring luciferase activity in terms of luminescence production. For NRF2 induction experiments, cells were plated in 96 white flat bottom well plates (20,000 cells/well). After 24 h, cells were incubated with selected compounds at the desired concentrations in duplicates for 24 h. The Luciferase Assay System (Promega E1500) was used according to provider protocol and luminescence was quantified in an Orion II microplate luminometer (Berthold, Germany). Fold induction of luciferase activity was normalized to basal conditions. Data were expressed as CD values, which means the concentration needed to duplicate the luciferase activity compared to basal conditions. CD values were calculated from dose–response curves fitted by non-linear regression for each compound after logarithmic transformation of the data using GraphPad Prism 8.0 software.

Series [4] relates to blood-brain barrier (passive diffusion). Briefly: Blood–brain barrier permeation assay (PAMPA). The conditions noted are these: PAMPA, pH 7.4.
Method: as §1
In series [5] the test system is SH-SY5Y. The following applies: MTT reduction. How it is done:
They were recovered by centrifugation at 800 rpm for 10 min. Cells from the third to twelfth passage were seeded at a density of 80,000 cells/well in 96-well plates for the neuroprotection studies.
Basal absorbance was set to 100% and results were normalized to basal conditions.
Cytotoxicity. LD50 values in several cell cultures employed
Table S2. Cytotoxicity elicited by 10-18 compounds in SH-SY5Y, AREc32 and mixed pr imary glial cultures. Viability was measured as MTT reduction in presence of increasing concentrations of der ivatives. LD50 values were calcula ted from dose-response curves. Data are expr essed as mean ± SEM of at least 3 independent experiments.
1.3. PAMPA control compounds (BBB permeability)
Table S3. Pr ediction of the BBB passive permeability of control compounds
On the technique in general: Tetrazolium assays rely on reduction of a dye to a coloured formazan, in cell work by metabolically active cells.

The target of series [6] is T2, MAO-B (Homo sapiens, UniProt P27338).
T2 construct: purchased Sigma–Aldrich
T2 sequence (P27338 1-520): T1 sequence (P27338 1-520)
Briefly: MAO-B reversibility assay (pre-incubation times). Type of series: biochemical. The following applies: 0, 15, 30 min pre-incubation at […] IC50.

In series [7] the test system is HMOX1 and GCLC in MEF cells. Briefly: Western blot of NRF2-dependent proteins in WT and NRF2 KO MEF cells. It counts as cell-based, mouse. The following applies: 10 µM, 8 or 16 h. How it is done:
Cell samples were lysed in ice-cold AKT lysis buffer (137 mM of NaCl, 20 mM of NaF, 10% glycerol, 20 mM of Tris–HCl, 1% Nonidet P-40, 1 μg/mL of leupeptin, 1 mM of phenylmethylsulfonylfluoride, 1 mM of sodium pyrophosphate, and 1 mM of Na3VO4, pH 7.5). Protein quantification was performed using the Pierce BCA Protein Assay Kit (ThermoFisher, Madrid, Spain) following manufacturer’s instructions. Then, 30 μg of protein were resolved by sodium dodecyl sulfate-polyacrylamide gel electrophoresis (SDS-PAGE) and transferred to Immobilon-P polyvinylidene difluoride (PVDF) membranes (Millipore Corp.). Membranes were activated with methanol and blocked with 4% bovine serum albumin (BSA) in Tris-buffered saline-Tween (TTBS: 10 mM of Tris, 150 mM of NaCl; 0.2% Tween-20, pH 7.4) for 2 h. After that, membranes were incubated overnight at 4 °C with the corresponding primary antibodies: anti–HMOX1 (1:1000, ab68477, Abcam, Cambridge, UK), anti-glutamate-cysteine ligase catalytic subunit (GCLC, 1:1000, ab41463, Abcam), anti-β-actin (1:50,000, A3854, Sigma–Aldrich, Madrid, Spain). […] Band intensities from specific proteins were analyzed with Fiji software.

[8] abbreviates: 30 min pre-incubation, 37 °C, read-out: IC50 MAO-B.

Like-named read-outs stand apart in the source and are kept apart here.

For the molecule `C#CCNCCc1c[nH]c2ccc(OC)cc12` [Compound 10, N-(2-(5-Methoxy-1H-indol-3-yl)ethyl)prop-2-yn-1-amine], in series [1], inhibition was half-maximal at 77.6 ± 9.1 µM (IC50) and the “Selectivity Index (MAO-A/MAO-B)” value turned out to be 0.0106. Besides, the MAO isozyme selectivity result in series [1] (MAO-B vs MAO-A) was “MAO-A selectivity”. Moreover, the Papp (as a rule, a coefficient for how fast a substance crosses the barrier) in series [2] turned out to be 12.3 ± 0.62 ×10⁻⁶ cm/s. For the same molecule, the EC50 in series [3] (AREc32 cells) came out at 20.9 ± 2.2 µM.
For the molecule `C#CCN(CC#C)CCc1c[nH]c2ccc(OC)cc12` [Compound 13, N-(2-(5-Methoxy-1H-indol-3-yl)ethyl)-N-(prop-2-yn-1-yl)prop-2-yn-1-amine], in series [1], inhibition was half-maximal at 89.1 ± 4.3 µM (IC50) and the “Selectivity Index (MAO-A/MAO-B)” value is given as >1.12. The Papp in series [2] is 20.3 ± 7.5 ×10⁻⁶ cm/s. The EC50 in series [3] (AREc32 cells) was determined as 13.9 ± 1.5 µM.
On to `C#CCN(CC#C)CCc1c[nH]c2ccc(OC(=O)C=Cc3ccccc3)cc12` [Compound 14, 3-(2-(Di(prop-2-yn-1-yl)amino)ethyl)-1H-indol-5-yl Cinnamate], for which the IC50 (in general, the concentration at which inhibition is half-maximal) in series [1] (setting [8]) was 17 ± 1.6 µM. Moreover, the “fold potentiation of NRF2 induction compared to the corresponding -OMe derivative” value in series [3] came out at 3 fold. Further, the “luciferase activity (NRF2 induction) dose–response” value in series [3] (AREc32 cells, 24 h, 3, 5, and 10 µM) is reported as “significantly increasing luciferase activity”. Moreover, the EC50 in series [3] (AREc32 cells) was 5.07 ± 0.23 µM. In addition, the Papp at 4 h, 100 µM in series [4] was 4.15 ± 1.8 ×10⁻⁶ cm/s. Further, the “LD50 (µM) SH-SY5Y” value in series [5] turned out to be 66.5 ± 9.8 µM. The MAO-B inhibition reversibility result in series [6] is on record as “reversible inhibition”. Also, in series [7], the “HMOX1 and GCLC protein levels in NRF2 KO MEF cells” value is recorded as “not able to increase”; the “HMOX1 and GCLC protein levels in WT MEF cells” value was “increased”.
For `C#CCN(CC#C)CCc1c[nH]c2ccc(OC(=O)/C=C/c3ccc(C)cc3)cc12` [Compound 15, 3-(2-(Di(prop-2-yn-1-yl)amino)ethyl)-1H-indol-5-yl-(E)-3-(p-tolyl) Acrylate], in series [1] (setting [8]), the IC50 was found to be 28.1 ± 0.6 µM. In series [3], the “fold potentiation of NRF2 induction compared to the corresponding -OMe derivative” value came to 3 fold. The EC50 in series [3] (AREc32 cells) was found to be 5.76 ± 0.07 µM. The Papp at 4 h, 100 µM in series [4] was found to be 4.46 ± 1.9 ×10⁻⁶ cm/s. Besides, in series [5], the “LD50 (µM) SH-SY5Y” value turned out to be 48.3 ± 6.6 µM.
